Patent EP0535528A1, “Antibacterial 5-Nitro-1-methyl-imidazolyl-3-terbutyl-2-hydroxy-aryl-carbinols” (EURORESEARCH S.r.L., priority 1991, dated 1993)
In brackets after ≈: the same amount, converted by molar mass.

Tests used:
Swiss female albino mice = experiment: Oral and intraperitoneal acute toxicity in mice (LD50, Probits method); format: in vivo; conditions: mice
Procedure: 20 Swiss female albino mice are used for this test of the average weight of 20 g (±2), coming from Nossan breeding .
Cages: in Makrolon® with saw dust litter, Number of animals per cage: 5 Acclimation period: 1 week Temperature: 22°C (± 2°C) Humidity : 60%, Diet: pellets for mice produced by Nossan firm, Water ad libitum Fast before the treatment: 16 hours
Oral by gastric route and intraperitoneal.
The substances to be studied: EU11100, EU11102, EU11103, EU11104 are treated with 0.5% carboxymethylcellulose in spring water, for the oral administration, whereas the same substances are intraperitoneally administered in the form of a physiological solution .
For each of the above mentioned substances, a mother suspension is prepared having a concentration in the active ingredient of 250 mg/ml for the oral administration, and analogously a mother suspension is prepared for the intraperitoneal administration having a concentration of the desired active principle of 100 mg/ml.
The following doses are used • a) oral route: 5000 mg/kg • b) intraperitoneal route : 2000 mg/kg
If mortality is observed at the above mentioned doses, other doses are administered in order to obtain a dose-response curve.
5 animals are used for every utilized concentration.
After the administration of the above substances the animals are kept under observation for 14 days , during which the mortality and the behaviour is observed.
LD₅₀ is determined on the base of the cumulative mortality observed in the successive 14 days after the administration by using the Probits method.

Helicobapter pylori [1] = experiment: Inhibition halos of the bacterial growth (impregnated disks on agar); format: cell-based; conditions: for activity against the Helicobapter pylori strains used: 10 strains; for Inhibition halo (mm), Average: average of 10 strains
Procedure: Comparison substance: Metronidazole Solubilization of the substances : All the substances to be studied are dissolved at room temperature in DMSO.
Some commercially available antibiogram disks are so impregnated with the above mentioned compounds that each disk has concentration equal to 10, 1, 0.1, 0.01 µg.
10 strains of Helicobapter pylori are used of recent clinical isolation.
Columbia Blood Agar Base is used, containing 5% of defibrinated horse blood, 2 % of calf serum, 2 vials of Vitox per liter of medium and Vancomicine (10 µg/ml) Trimetoprim lactate(5 µg/ml) and Polimixin B (2.5 U/ml).
0.1 ml of a suspension of the different used strains are uniformly distributed onto Petri plates, containing 20 ml of Columbia Blood Agar base, obtained by taking a sample, by means of a platinum loop, of different colonies from a 48 hours culture, grown in anaerobiosis jars with "Gas Pack", without a catalyst and diluted into a physiological solution.
4 disks per plate, previously impregnated with the substances under examination, are then placed onto the agar layer of each plate.
After 48 hours of anaerobiosis incubation, as above described, the inhibition halos of the bacterial growth, produced by the different activity of the substances inside the agar, are evaluated.

Helicobapter pylori [2] = experiment: Minimal inhibiting concentration (agar dilution); format: cell-based
Procedure: Substances under examination: EU11100, EU11102, EU11103, EU11104. Comparison substance: Metronidazole Solubilization of the substances: All the substances to be studied are dissolved at room temperature in DMSO. […] 10 strains of Helicobapter pylori are used of recent clinical isolation […] The sowing of the bacteria, prepared as described in the preceding test is carried out by means a "multi-point inoculator". After 48 hours incubation under the condition described in the preceding test, the plates are examined and the Minimal Inhibiting Concentration is evaluated, namely that dose corresponding to growth absence.

Cc1ccc(C(C)(C)C)c(O)c1C(O)c1ncc([N+](=O)[O-])n1C (centres unmarked) [EU11104, 5-nitro-1-methyl-imidazolyl-3-terbutyl-2-hydroxy-6 methyl-phenyl-carbinol]
toxicity when intraperitoneally administered (Swiss female albino mice; intraperitoneal, 2000 mg/kg): not toxic
toxicity when orally administered (Swiss female albino mice; oral, 5000 mg/kg): not toxic
activity against the Helicobapter pylori strains used (Helicobapter pylori [1]; 0.1 µg/disk): active against 4 out of 10 strains
activity against the Helicobapter pylori strains used (Helicobapter pylori [1]; 1 µg/disk): active against all the Helicobapter pylori used
activity against the Helicobapter pylori strains used (Helicobapter pylori [1]; disk test): active against all the Helicobapter pylori strains used
Inhibition halo (mm), Average (Helicobapter pylori [1]; 1 µg/disk): 24.9 mm
Inhibition halo (mm), Average (Helicobapter pylori [1]; 10 µg/disk): 31.5 mm
Inhibition halo (mm) at the concentration (µg/disk) (Helicobapter pylori [1]; strain 1, 0.01 µg/disk): 0 mm
Inhibition halo (mm) at the concentration (µg/disk) (Helicobapter pylori [1]; strain 1, 1 µg/disk): 27 mm
Inhibition halo (mm) at the concentration (µg/disk) (Helicobapter pylori [1]; strain 1, 10 µg/disk): 33 mm
Inhibition halo (mm) at the concentration (µg/disk) (Helicobapter pylori [1]; strain 2, 0.01 µg/disk): 0 mm
Inhibition halo (mm) at the concentration (µg/disk) (Helicobapter pylori [1]; strain 2, 0.1 µg/disk): 0 mm
Inhibition halo (mm) at the concentration (µg/disk) (Helicobapter pylori [1]; strain 2, 1 µg/disk): 22 mm
Inhibition halo (mm) at the concentration (µg/disk) (Helicobapter pylori [1]; strain 2, 10 µg/disk): 30 mm
Inhibition halo (mm) at the concentration (µg/disk) (Helicobapter pylori [1]; strain 3, 0.01 µg/disk): 0 mm
Inhibition halo (mm) at the concentration (µg/disk) (Helicobapter pylori [1]; strain 3, 0.1 µg/disk): 0 mm
Inhibition halo (mm) at the concentration (µg/disk) (Helicobapter pylori [1]; strain 3, 1 µg/disk): 22 mm
Inhibition halo (mm) at the concentration (µg/disk) (Helicobapter pylori [1]; strain 3, 10 µg/disk): 28 mm
Inhibition halo (mm) at the concentration (µg/disk) (Helicobapter pylori [1]; strain 4, 0.01 µg/disk): 0 mm
Inhibition halo (mm) at the concentration (µg/disk) (Helicobapter pylori [1]; strain 4, 1 µg/disk): 30 mm
Inhibition halo (mm) at the concentration (µg/disk) (Helicobapter pylori [1]; strain 4, 10 µg/disk): 36 mm
Inhibition halo (mm) at the concentration (µg/disk) (Helicobapter pylori [1]; strain 5, 0.01 µg/disk): 0 mm
Inhibition halo (mm) at the concentration (µg/disk) (Helicobapter pylori [1]; strain 5, 0.1 µg/disk): 0 mm
Inhibition halo (mm) at the concentration (µg/disk) (Helicobapter pylori [1]; strain 5, 1 µg/disk): 22 mm
Inhibition halo (mm) at the concentration (µg/disk) (Helicobapter pylori [1]; strain 5, 10 µg/disk): 28 mm
Inhibition halo (mm) at the concentration (µg/disk) (Helicobapter pylori [1]; strain 6, 0.01 µg/disk): 0 mm
Inhibition halo (mm) at the concentration (µg/disk) (Helicobapter pylori [1]; strain 6, 0.1 µg/disk): 14 mm
Inhibition halo (mm) at the concentration (µg/disk) (Helicobapter pylori [1]; strain 6, 1 µg/disk): 29 mm
Inhibition halo (mm) at the concentration (µg/disk) (Helicobapter pylori [1]; strain 6, 10 µg/disk): 35 mm
Inhibition halo (mm) at the concentration (µg/disk) (Helicobapter pylori [1]; strain 7, 0.01 µg/disk): 0 mm
Inhibition halo (mm) at the concentration (µg/disk) (Helicobapter pylori [1]; strain 7, 0.1 µg/disk): 0 mm
Inhibition halo (mm) at the concentration (µg/disk) (Helicobapter pylori [1]; strain 7, 1 µg/disk): 22 mm
Inhibition halo (mm) at the concentration (µg/disk) (Helicobapter pylori [1]; strain 7, 10 µg/disk): 26 mm
Inhibition halo (mm) at the concentration (µg/disk) (Helicobapter pylori [1]; strain 8, 0.01 µg/disk): 0 mm
Inhibition halo (mm) at the concentration (µg/disk) (Helicobapter pylori [1]; strain 8, 0.1 µg/disk): 17 mm
Inhibition halo (mm) at the concentration (µg/disk) (Helicobapter pylori [1]; strain 8, 1 µg/disk): 31 mm
Inhibition halo (mm) at the concentration (µg/disk) (Helicobapter pylori [1]; strain 8, 10 µg/disk): 37 mm
Inhibition halo (mm) at the concentration (µg/disk) (Helicobapter pylori [1]; strain 9, 0.01 µg/disk): 0 mm
Inhibition halo (mm) at the concentration (µg/disk) (Helicobapter pylori [1]; strain 9, 0.1 µg/disk): 0 mm
Inhibition halo (mm) at the concentration (µg/disk) (Helicobapter pylori [1]; strain 9, 1 µg/disk): 21 mm
Inhibition halo (mm) at the concentration (µg/disk) (Helicobapter pylori [1]; strain 9, 10 µg/disk): 30 mm
Inhibition halo (mm) at the concentration (µg/disk) (Helicobapter pylori [1]; strain 10, 0.01 µg/disk): 0 mm
Inhibition halo (mm) at the concentration (µg/disk) (Helicobapter pylori [1]; strain 10, 0.1 µg/disk): 0 mm
Inhibition halo (mm) at the concentration (µg/disk) (Helicobapter pylori [1]; strain 10, 1 µg/disk): 23 mm
Inhibition halo (mm) at the concentration (µg/disk) (Helicobapter pylori [1]; strain 10, 10 µg/disk): 32 mm
MIC 50% (Helicobapter pylori [2]; 10 strains): 0.03 µg/mL (≈ 0.0939 µM)
MIC 90% (Helicobapter pylori [2]; 10 strains): 0.06 µg/mL (≈ 0.188 µM)
MIC range (Helicobapter pylori [2]; 10 strains): 0.015 to 0.016 µg/mL
MIC values (Helicobapter pylori [2]; in words, compared with Metronidazole): very low MIC values
M.I.C. (Helicobapter pylori [2]; strain 1): 0.12 µg/mL
M.I.C. (Helicobapter pylori [2]; strain 2): 0.03 µg/mL
M.I.C. (Helicobapter pylori [2]; strain 3): 0.06 µg/mL
M.I.C. (Helicobapter pylori [2]; strain 4): 0.015 µg/mL
M.I.C. (Helicobapter pylori [2]; strain 5): 0.03 µg/mL
M.I.C. (Helicobapter pylori [2]; strain 6): 0.03 µg/mL
M.I.C. (Helicobapter pylori [2]; strain 7): 0.06 µg/mL
M.I.C. (Helicobapter pylori [2]; strain 8): 0.06 µg/mL
M.I.C. (Helicobapter pylori [2]; strain 9): 0.06 µg/mL
M.I.C. (Helicobapter pylori [2]; strain 10): 0.015 µg/mL
